The source made the active and inactive calls. Unless noted, the rule behind the calls is not given here.
Legend:
[1] = biological target: Kappa-type opioid receptor (Mus musculus) (UniProt P33534); test: (§1) Ki value determined against Opioid receptor kappa 1 using [3H]U69, 593 at the Kd concentration 0.95 nM
[2] = biological target: Mu-type opioid receptor (Mus musculus) (UniProt P42866); test: (§2) Ki value determined against Opioid receptor mu 1 using [3H]DAMGO at the Kd concentration 0.57 nM
Sequence of Mu-type opioid receptor (Mus musculus) (P42866 whole entry): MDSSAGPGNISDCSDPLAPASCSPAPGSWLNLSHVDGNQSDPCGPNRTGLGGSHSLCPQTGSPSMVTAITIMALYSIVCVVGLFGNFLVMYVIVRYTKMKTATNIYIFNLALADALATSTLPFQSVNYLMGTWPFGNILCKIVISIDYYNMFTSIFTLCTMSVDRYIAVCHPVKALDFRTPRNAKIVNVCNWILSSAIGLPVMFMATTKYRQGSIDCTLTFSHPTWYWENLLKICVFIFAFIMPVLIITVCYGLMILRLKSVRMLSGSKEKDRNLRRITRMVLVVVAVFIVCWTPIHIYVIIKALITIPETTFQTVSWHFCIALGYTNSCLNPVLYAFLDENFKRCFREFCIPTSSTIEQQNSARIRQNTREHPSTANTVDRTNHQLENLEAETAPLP

[3] = biological target: Sigma non-opioid intracellular receptor 1 (Rattus norvegicus, UniProt Q9R0C9); test: Ki value determined against Sigma opioid receptor type 1 using [(+)-[3H]pentazocine at the Kd concentration 2 nM.
Sequence of Sigma non-opioid intracellular receptor 1 (Rattus norvegicus, UniProt Q9R0C9) (Q9R0C9 whole entry): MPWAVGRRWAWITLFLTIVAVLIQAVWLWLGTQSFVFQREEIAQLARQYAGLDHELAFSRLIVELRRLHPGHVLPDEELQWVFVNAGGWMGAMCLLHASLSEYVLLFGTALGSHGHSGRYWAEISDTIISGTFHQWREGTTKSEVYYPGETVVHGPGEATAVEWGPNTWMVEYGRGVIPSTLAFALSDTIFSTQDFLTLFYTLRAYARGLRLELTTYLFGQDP

[4] = biological target: T1, Opioid receptor (Mus musculus) (UniProt P42866+P32300+P33534); test: Evaluated in vivo for the antinociceptive and opioid antagonist assays in ICR male mice, Tail-Flick agonist and antagonist tests was performed; IA, Inactive less than 70% of mice affected at 30 mg/kg.; type: functional, organism-based; design: dose 30 mg/kg
T1 sequence (P32300 whole entry, looked up): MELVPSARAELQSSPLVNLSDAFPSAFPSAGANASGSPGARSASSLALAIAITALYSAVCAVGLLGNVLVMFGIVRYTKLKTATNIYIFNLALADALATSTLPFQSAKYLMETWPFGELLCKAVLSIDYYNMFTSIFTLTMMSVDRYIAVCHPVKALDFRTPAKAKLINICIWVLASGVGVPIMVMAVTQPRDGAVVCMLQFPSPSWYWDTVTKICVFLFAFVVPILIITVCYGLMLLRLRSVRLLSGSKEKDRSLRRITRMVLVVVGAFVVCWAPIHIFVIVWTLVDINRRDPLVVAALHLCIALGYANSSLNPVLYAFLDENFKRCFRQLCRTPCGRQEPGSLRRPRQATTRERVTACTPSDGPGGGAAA
T1 sequence (P33534 whole entry, looked up): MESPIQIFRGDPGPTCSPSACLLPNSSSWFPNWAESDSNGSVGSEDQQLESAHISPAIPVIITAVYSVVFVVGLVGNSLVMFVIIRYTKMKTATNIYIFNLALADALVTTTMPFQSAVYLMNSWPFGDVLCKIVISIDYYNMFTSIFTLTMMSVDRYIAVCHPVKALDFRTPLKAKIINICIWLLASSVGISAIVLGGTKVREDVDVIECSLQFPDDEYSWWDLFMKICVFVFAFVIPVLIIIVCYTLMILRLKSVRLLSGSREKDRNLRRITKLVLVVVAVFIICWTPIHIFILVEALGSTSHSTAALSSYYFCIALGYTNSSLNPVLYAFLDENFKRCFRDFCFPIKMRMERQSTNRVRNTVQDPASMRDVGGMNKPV
T1 sequence (P42866 whole entry, looked up): as the sequence (P42866 whole entry) above

[5] = biological target: Kappa-type opioid receptor (Mus musculus, UniProt P33534); test: as §1
Sequence of Kappa-type opioid receptor (P33534 whole entry): as the sequence (P33534 whole entry, looked up) above

[6] = biological target: Delta-type opioid receptor (Mus musculus, UniProt P32300); test: Ki value determined against Opioid receptor delta 1 using [3H]DPDPE at the Kd concentration 2.1 nM
Sequence of Delta-type opioid receptor (P32300 whole entry): as the sequence (P32300 whole entry, looked up) above

[7] = biological target: Mu-type opioid receptor (Mus musculus, UniProt P42866); test: as §2
Sequence of Mu-type opioid receptor (P42866 whole entry): as the sequence (P42866 whole entry) above

[8] = biological target: Sigma non-opioid intracellular receptor 1 (Mus musculus, UniProt O55242); test: Ki value determined against Sigma opioid receptor type 1 using [(+)-[3H]pentazocine at the Kd concentration 2nM
Sequence of Sigma non-opioid intracellular receptor 1 (Mus musculus, UniProt O55242) (O55242 whole entry): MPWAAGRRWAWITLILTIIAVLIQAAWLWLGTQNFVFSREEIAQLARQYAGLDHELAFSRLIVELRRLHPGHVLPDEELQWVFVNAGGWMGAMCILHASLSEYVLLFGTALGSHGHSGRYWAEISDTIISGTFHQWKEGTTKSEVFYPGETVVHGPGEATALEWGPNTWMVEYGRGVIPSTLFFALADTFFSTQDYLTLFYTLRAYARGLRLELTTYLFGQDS

[9] = biological target: Sigma 2 receptor; test: Ki value determined against Sigma opioid receptor type 2 using [3H]DTG (5 nM) with 1 uM dextrallorphan to mask sigma-1 binding; design: species or system Mus musculus
[10] = biological target: T1, Opioid receptor (Mus musculus); test: Hot plate test was carried out for mouse injected sc and the antinociceptive activity was determined from the response;IA, Inactive less than 70% of mice affected at 30 mg/kg.; type: functional, organism-based; design: dose 30 mg/kg
[11] = biological target: T1, Opioid receptor (Mus musculus); test: Using the PPQ (paraphenylquinone) assay selective opioid receptor agonist activity was established in mice; type: functional
[12] = (§3) Tail-flick vs. morphine ED80(morphine sulfate substituted completely) was studied to determine selective in vivo agonist and antagonist activity.; type: functional
[13] = biological target: T1, Opioid receptor (Mus musculus)
Description: Antinociceptive activity was determined in vivo in all opioid type tests, expressed as AD50 administered subcutaneously

[14] = biological target: T1, Opioid receptor (Mus musculus); test: Evaluated in vivo for the antinociceptive and opioid antagonist assays in ICR male mice, Tail-Flick agonist and antagonist tests was performed; type: functional, organism-based
[15] = biological target: T1, Opioid receptor (Mus musculus); test: Hot plate test was carried out for mouse injected sc and the antinociceptive activity was determined from the response; type: functional, organism-based
[16] = (§4) Tail-flick vs. morphine ED80(morphine sulfate substituted completely) was studied to determine selective in vivo agonist and antagonist activity.;IA, Inactive less than 70% of mice affected at 30 mg/kg.; type: functional, organism-based; design: dose 30 mg/kg
[17] = biological target: Delta-type opioid receptor (Homo sapiens) (UniProt P41143); test: Antinociceptive activity was determined at Opioid receptor delta 1 using DPDPE; type: functional
Sequence of Delta-type opioid receptor (Homo sapiens) (P41143 whole entry): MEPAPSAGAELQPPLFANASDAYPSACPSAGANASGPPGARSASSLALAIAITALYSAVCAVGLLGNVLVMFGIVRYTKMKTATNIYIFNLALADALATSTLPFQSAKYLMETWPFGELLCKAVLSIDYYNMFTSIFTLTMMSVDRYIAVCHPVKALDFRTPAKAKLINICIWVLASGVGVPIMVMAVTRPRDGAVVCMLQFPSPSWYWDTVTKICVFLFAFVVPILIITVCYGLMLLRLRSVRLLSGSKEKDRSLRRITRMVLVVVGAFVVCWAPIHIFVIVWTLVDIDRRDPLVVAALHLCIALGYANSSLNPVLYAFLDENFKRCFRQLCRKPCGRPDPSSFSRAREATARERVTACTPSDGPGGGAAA

[18] = biological target: Delta-type opioid receptor (Homo sapiens) (UniProt P41143); test: Antinociceptive activity was determined at Opioid receptor delta 1 versus ED80 of U69,593; type: functional
[19] = biological target: Delta-type opioid receptor (Homo sapiens) (UniProt P41143); test: Antinociceptive activity was determined at Opioid receptor delta 1 versus ED80 of morphine; type: functional
[20] = biological target: Sigma 2 receptor; test: Ki value determined against Sigma opioid receptor type 2 using [3H]DTG(5nM) with 1 uM dextrallorphan to mask sigma1 binding; design: species or system Mus musculus
[21] = biological target: T1, Opioid receptor (Mus musculus); test: Antinociceptive activity was determined in vivo in all opioid type tests; type: organism-based
[22] = biological target: T1, Opioid receptor (Mus musculus); settings: Tail
Description: (§5) Narcotic antagonist activity in the mouse tail-flick versus morphine assay

[23] = biological target: T1, Opioid receptor (Mus musculus); settings: Tail; remark: listed apart in the source
Description: as §5

[24] = biological target: T1, Opioid receptor (Mus musculus); test: as §3; type: functional, organism-based
[25] = biological target: T1, Opioid receptor (Mus musculus); test: Using the PPQ (paraphenylquinone) assay selective opioid receptor agonist activity was established in mice;IA, Inactive less than 70% of mice affected at 30 mg/kg.; type: functional, organism-based; design: dose 30 mg/kg
[26] = tested on: Mus musculus; test: as §4; type: functional, organism-based; design: dose 30 mg/kg

Sequence of Kappa-type opioid receptor (Mus musculus) (P33534 whole entry): as the sequence (P33534 whole entry, looked up) above

Row | SMILES | Ki [3] [nM] | Ki [5] [nM] | Ki [6] [nM] | Ki [7] [nM] | Ki [8] [nM] | Ki [9] [nM] | ED50 [11] [mg/kg] | further results
1 | C=CCCN1CC[C@]2(C)c3cc(O)ccc3CC1C2C (stereo partly drawn) | 15 | – | – | – | – | – | – | inhibition [1]: 35.5%; inhibition [2]: 41%
2 | C#CCCCN1CC[C@]2(C)c3cc(O)ccc3CC1C2C (stereo partly drawn) | 18 | – | – | – | – | – | – | –
3 | C=CCN1CC[C@]2(C)c3cc(O)ccc3CC1[C@@H]2C | – | 0.3 | 5.5 | 0.9 | 11000 | 3200 | 0.1 | ED50 [4]: inactive; ED50 [10]: inactive; ED50 [12]: 0.2 mg/kg
4 | Oc1ccc2c3c1O[C@H]1c4[nH]c5ccccc5c4C[C@@]4(O)[C@@H](C2)N(CC2CC2)CC[C@]314 | – | – | – | – | – | – | – | AD50 [13]: 3.1 mg/kg
5 | C#CCCN1CC[C@]2(C)c3cc(O)ccc3CC1[C@@H]2C | – | 1.4 | 10 | 4.6 | 5900 | 2200 | 0.04 | ED50 [14]: 0.05 mg/kg; ED50 [15]: 0.1 mg/kg; ED50 [16]: inactive
6 | CC1C2Cc3ccc(O)cc3[C@@]1(C)CCN2CCCCCCC#N (stereo partly drawn) | 16 | – | – | – | – | – | – | inhibition [1]: 17.7%; inhibition [2]: 37%
7 | CC1C2Cc3ccc(O)cc3[C@@]1(C)CCN2CCCCCC#N (stereo partly drawn) | 33 | 500 | – | – | – | – | – | inhibition [2]: 12.4%
8 | C#CCCCN1CC[C@]2(C)c3cc(O)ccc3CC1[C@@H]2C | – | 11 | 140 | 18 | 200 | 440 | 12 | ED50 [4]: inactive; AD50 [17]: 0.05 mg/kg; AD50 [18]: 1.2 mg/kg; AD50 [19]: 20 mg/kg; ED50 [10]: inactive; ED50 [12]: 2 mg/kg
9 | C[C@H]1C2Cc3ccc(O)cc3[C@@]1(C)CCN2CCC#N | – | 0.4 | 9.8 | 4.2 | 9800 | 51000 | 0.05 | ED50 [14]: 0.3 mg/kg; ED50 [15]: 0.1 mg/kg
10 | C=CCCCN1CC[C@]2(C)c3cc(O)ccc3CC1C2C (stereo partly drawn) | 2.1 | 400 | – | – | – | – | – | inhibition [2]: 20.5%
11 | C[C@H]1C2Cc3ccc(O)cc3[C@@]1(C)CCN2CCCCC#N | – | 6.9 | 160 | 18 | 490 | 2800 | 3 | ED50 [14]: 15 mg/kg
12 | CC1C2Cc3ccc(O)cc3[C@@]1(C)CCN2CCC#N (stereo partly drawn) | 250 | 600 | – | – | – | – | – | inhibition [2]: 11.6%
13 | CC#CCN1CC[C@]2(C)c3cc(O)ccc3CC1[C@@H]2C (stereo in doubt; 26) [listing 1 of 2 here] | – | – | – | – | 160 | – | – | Ki [20]: 12000 nM
14 | COC(=O)/C=C/C(=O)N[C@@H]1CC[C@@]2(O)[C@H]3Cc4ccc(O)c5c4[C@@]2(CCN3CC2CC2)[C@H]1O5 | – | – | – | – | – | – | – | AD50 [21]: 0.6 µg brain-1
15 | C[C@H]1C2Cc3ccc(O)cc3[C@@]1(C)CCN2CCCC#N | – | 0.4 | 23 | 5.8 | 1700 | 8400 | 0.01 | ED50 [14]: 0.4 mg/kg; ED50 [15]: 1 mg/kg
16 | CC1C2Cc3ccc(O)cc3[C@@]1(C)CCN2CCCCC#N (stereo partly drawn) | 36 | 1300 | – | 4800 | – | – | – | –

Row | SMILES | Ki [3] [nM] | Ki [5] [nM] | Ki [6] [nM] | Ki [7] [nM] | Ki [8] [nM] | Ki [9] [nM] | ED50 [11] [mg/kg] | further results
17 | C=CCN1CC[C@]2(C)c3cc(O)ccc3CC1C2C (stereo partly drawn) | 300 | – | – | – | – | – | – | inhibition [1]: 31%; inhibition [2]: 28.5%; AD50 [22]: 13.2 mg/kg
18 | CC1C2Cc3ccc(O)cc3[C@@]1(C)CCN2CC#N (stereo partly drawn) | 11000 | – | – | – | – | – | – | inhibition [1]: 20.4%; inhibition [2]: 18.6%
19 | C#CCCN1CC[C@]2(C)c3cc(O)ccc3CC1C2C (stereo partly drawn) | 110 | – | – | – | – | – | – | –
20 | CC#CCN1CC[C@]2(C)c3cc(O)ccc3CC1[C@@H]2C (stereo in doubt; 12) [listing 1 of 2 here] | – | – | – | – | – | – | 0.1 | ED50 [4]: inactive; ED50 [10]: inactive
21 | CC#CCN1CC[C@]2(C)c3cc(O)ccc3CC1[C@@H]2C (stereo in doubt; 26) [listing 2 of 2 here] | – | – | – | – | – | – | – | AD50 [23]: 6.7 mg/kg
22 | CC#CCN1CC[C@]2(C)c3cc(O)ccc3CC1[C@@H]2C (stereo in doubt; 12) [listing 2 of 2 here] | – | 3.9 | 60 | 0.5 | 9800 | 4400 | – | ED50 [12]: 0.3 mg/kg
23 | Oc1ccc2c3c1O[C@H]1c4[nH]c5c(c4C[C@@]4(O)[C@@H](C2)N(CC2CC2)CC[C@]314)C[C@@]1(O)[C@H]2Cc3ccc(O)c4c3[C@@]1(CCN2CC1CC1)[C@H]5O4 | – | – | – | – | – | – | – | AD50 [13]: 0.3 mg/kg
24 | C[C@H]1C2Cc3ccc(O)cc3[C@@]1(C)CCN2CCCCCC#N | – | 11 | 220 | 15 | 640 | 380 | – | ED50 [4]: inactive; ED50 [24]: 10 mg/kg; ED50 [10]: inactive; ED50 [25]: inactive
25 | C[C@H]1C2Cc3ccc(O)cc3[C@@]1(C)CCN2CCCCCCC#N | – | 38 | 350 | 90 | 80 | 150 | 9 | ED50 [4]: inactive; ED50 [10]: inactive; ED50 [26]: inactive
26 | CC1C2Cc3ccc(O)cc3[C@@]1(C)CCN2CCCC#N (stereo partly drawn) | 20 | 240 | – | – | – | – | – | inhibition [2]: 9%
27 | C=CCCN1CC[C@]2(C)c3cc(O)ccc3CC1[C@@H]2C | – | 1.3 | 21 | 2.1 | 1600 | 620 | 0.3 | ED50 [14]: 0.05 mg/kg; ED50 [24]: 4 mg/kg; ED50 [15]: 0.8 mg/kg
28 | C[C@H]1C2Cc3ccc(O)cc3[C@@]1(C)CCN2CC#N | – | 70 | 590 | 100 | 13000 | 19000 | 1.5 | ED50 [14]: 12 mg/kg; ED50 [15]: 9 mg/kg
29 | C=CCCCCN1CC[C@]2(C)c3cc(O)ccc3CC1C2C (stereo partly drawn) | 1.1 | – | – | 980 | – | – | – | –
30 | C=CCCCN1CC[C@]2(C)c3cc(O)ccc3CC1[C@@H]2C | – | 5.9 | 60 | 15 | 50 | 180 | 1.4 | ED50 [4]: inactive; ED50 [10]: inactive; ED50 [12]: 6 mg/kg
31 | C=CCCCCN1CC[C@]2(C)c3cc(O)ccc3CC1[C@@H]2C | – | 5.8 | 56 | 10 | 22 | 80 | 0.8 | ED50 [14]: 0.3 mg/kg; ED50 [15]: 0.6 mg/kg; ED50 [16]: inactive
